Source: patent US9828379B2 (priority 2013, dated 2017)

Columns and labels:
ABHD6 [1] = biological target: T1, ABHD6 (Mus musculus, UniProt Q8R2Y0); experiment: biochemical; conditions: in vitro competitive ABPP
T1 sequence (Q8R2Y0 1-336): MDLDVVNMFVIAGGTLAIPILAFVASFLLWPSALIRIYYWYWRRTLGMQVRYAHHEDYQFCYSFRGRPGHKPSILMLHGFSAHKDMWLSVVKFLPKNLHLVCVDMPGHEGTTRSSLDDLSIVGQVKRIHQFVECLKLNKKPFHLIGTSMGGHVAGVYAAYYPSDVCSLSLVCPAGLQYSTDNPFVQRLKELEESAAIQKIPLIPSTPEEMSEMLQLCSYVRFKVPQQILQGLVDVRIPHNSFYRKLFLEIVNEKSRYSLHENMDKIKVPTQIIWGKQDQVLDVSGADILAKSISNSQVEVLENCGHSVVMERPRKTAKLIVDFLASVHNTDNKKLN

FAAH [2] = biological target: T2, FAAH (Mus musculus, UniProt O08914); experiment: biochemical; conditions: in vitro competitive ABPP
T2 sequence (O08914 1-579): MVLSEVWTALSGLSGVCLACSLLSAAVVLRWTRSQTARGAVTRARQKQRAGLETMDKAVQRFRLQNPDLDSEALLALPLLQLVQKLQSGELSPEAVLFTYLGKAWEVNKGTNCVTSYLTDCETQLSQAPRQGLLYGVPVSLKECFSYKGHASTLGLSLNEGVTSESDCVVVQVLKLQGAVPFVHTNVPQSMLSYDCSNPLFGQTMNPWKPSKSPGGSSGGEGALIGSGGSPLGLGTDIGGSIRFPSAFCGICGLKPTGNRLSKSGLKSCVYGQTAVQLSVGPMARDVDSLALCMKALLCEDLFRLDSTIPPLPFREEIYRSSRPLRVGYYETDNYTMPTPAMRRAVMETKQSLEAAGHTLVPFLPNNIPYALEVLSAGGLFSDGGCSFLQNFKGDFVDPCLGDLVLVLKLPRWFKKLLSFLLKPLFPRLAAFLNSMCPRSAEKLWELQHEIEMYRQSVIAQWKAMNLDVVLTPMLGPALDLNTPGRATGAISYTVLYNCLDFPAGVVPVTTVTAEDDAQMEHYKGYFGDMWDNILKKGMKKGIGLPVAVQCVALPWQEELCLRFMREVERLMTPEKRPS

MAGL [3] = biological target: T3, MAGL (Mus musculus, UniProt O35678); experiment: biochemical; conditions: mouse; in vitro competitive ABPP; read-out: Mouse (IC50 value, nM) MAGL
T3 sequence (O35678 1-303): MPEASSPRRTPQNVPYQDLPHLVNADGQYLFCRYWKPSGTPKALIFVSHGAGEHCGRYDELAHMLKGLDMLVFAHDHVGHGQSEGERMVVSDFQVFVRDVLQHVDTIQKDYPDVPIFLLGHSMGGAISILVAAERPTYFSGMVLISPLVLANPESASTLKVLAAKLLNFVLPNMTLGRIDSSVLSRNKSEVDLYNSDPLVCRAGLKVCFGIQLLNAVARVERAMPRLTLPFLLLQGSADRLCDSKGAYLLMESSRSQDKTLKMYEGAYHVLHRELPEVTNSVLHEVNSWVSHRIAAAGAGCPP

Mouse brain MAGL = biological target: T4, Mouse brain MAGL (Mus musculus, UniProt O35678); experiment: Mouse brain proteomes from inhibitor treated mice (oral gavage, ABPP analysis); assay type: in vivo; conditions: p.o., sacrificed 4 h following administration
T4 construct: from tissue; host or cells: brain of wild-type C57Bl/6J mice dosed by oral gavage
T4 sequence (O35678 1-303): T3 sequence (O35678 1-303)
Experimental: After 30 min, FP—Rh (1.0 μL, 50 μM in DMSO) was added and the mixture was incubated for another 30 min at 37° C. Reactions were quenched with SDS loading buffer (50 μL-4×) and run on SDS-PAGE. Following gel imaging, serine hydrolase activity was determined by measuring fluorescent intensity of gel bands corresponding to MAGL, ABHD6 and FAAH using ImageJ 1.43 u software.
Inhibitors were administered to wild-type C57Bl/6J by oral gavage in a vehicle of polyethylene glycol. Each animal was sacrificed 4 h following administration and brain proteomes were prepared and analyzed according to previously established methods (See Niphakis, M. J., et al. (2011) ACS Chem. Neurosci. and Long, J. Z., et al. Nat. Chem. Biol. 5:37-44).

ABHD6 [4] = biological target: T1, ABHD6; experiment: In vitro competitive activity-based protein profiling (Table 2, % inhibition at 1 μM); assay type: biochemical; conditions: read-out: % Inhibition at 1 μM ABHD6
FAAH [5] = biological target: T2, FAAH; experiment: as above; assay type: biochemical; conditions: read-out: % Inhibition at 1 μM FAAH
MAGL [6] = biological target: T3, MAGL; experiment: as above; assay type: biochemical; conditions: read-out: % Inhibition at 1 μM MAGL
Experimental: After 30 min, FP—Rh (1.0 μL, 50 μM in DMSO) was added and the mixture was incubated for another 30 min at 37° C. Reactions were quenched with SDS loading buffer (50 μL-4×) and run on SDS-PAGE.
Cell lysates were diluted with mock proteomes for use in competitive ABPP experiments.

Structure (SMILES)	IC50 (ABHD6 [1]) [nM]	IC50 (FAAH [2]) [nM]	IC50 (MAGL [3]) [nM]	inhibition at 5 mg/kg (Mouse brain MAGL) [%]	inhibition at 1 µM (ABHD6 [4]) [%]	inhibition at 1 µM (FAAH [5]) [%]	inhibition at 1 µM (MAGL [6]) [%]
CC(=O)N1CCN(c2cc(C(C)C)ccc2CN2CC3CN(C(=O)OC(C(F)(F)F)C(F)(F)F)CC3C2)CC1 (centres unmarked) [Example 24, 1,1,1,3,3,3-Hexafluoropropan-2-yl 5-[[2-(4-acetylpiperazin-1-yl)-4-(propan-2-yl)phenyl]methyl]-octahydropyrrolo[3,4-c]pyrrole-2-carboxylate]	1000 to 10000	> 10000	< 100	≤ 25	25 to 75	< 25	> 75
O=C(OC(C(F)(F)F)C(F)(F)F)N1CC2CN(Cc3cccc(N4CCOCC4)c3C(F)(F)F)CC2C1 (centres unmarked) [Example 129, 1,1,1,3,3,3-hexafluoropropan-2-yl 5-[[3-(morpholin-4-yl)-2-(trifluoromethyl)phenyl]methyl]-octahydropyrrolo[3,4-c]pyrrole-2-carboxylate]	1000 to 10000	1000 to 10000	< 100	≥ 75	< 25	< 25	> 75
O=C(OC(C(F)(F)F)C(F)(F)F)N1CC2CN(Cc3cccc(Cl)c3N3CCC4(CCOCC4)C3)CC2C1 (centres unmarked) [Example 172, 1,1,1,3,3,3-hexafluoropropan-2-yl 5-[(3-chloro-2-[8-oxa-2-azaspiro[4.5]decan-2-yl]phenyl)methyl]-octahydropyrrolo[3,4-c]pyrrole-2-carboxylate]	1000 to 10000	> 10000	< 100	≤ 25	< 25	< 25	> 75
CC(C)n1cc(CN2CC3CN(C(=O)OC(C(F)(F)F)C(F)(F)F)CC3C2)c(-c2ccccc2Cl)n1 (centres unmarked) [Example 54, 1,1,1,3,3,3-Hexafluoropropan-2-yl 5-[[3-(2-chlorophenyl)-1-(propan-2-yl)-1H-pyrazol-4-yl]methyl]-octahydropyrrolo[3,4-c]pyrrole-2-carboxylate]	100 to 1000	> 10000	< 100	25 to 75	25 to 75	< 25	> 75
O=C(OC(C(F)(F)F)C(F)(F)F)N1CC2CN(Cc3ccc(Cl)cc3N3CC4CCC(C3)O4)CC2C1 (centres unmarked) [Example 3, 1,1,1,3,3,3-Hexafluoropropan-2-yl 5-(2-(8-oxa-3-azabicyclo[3.2.1]octan-3-yl)-4-chlorobenzyl)hexahydropyrrolo[3,4-c]pyrrole-2(1H)-carboxylate]	1000 to 10000	1000 to 10000	< 100	≤ 25	25 to 75	25 to 75	> 75
O=C(OC(C(F)(F)F)C(F)(F)F)N1CC2CN(Cc3cccc(-c4ccccc4)c3)CC2C1 (centres unmarked) [Example 13, 1,1,1,3,3,3-Hexafluoropropan-2-yl 5-[(3-phenylphenyl)methyl]-octahydropyrrolo[3,4-c]pyrrole-2-carboxylate]	1000 to 10000	100 to 1000	< 100	–	< 25	25 to 75	> 75
Cn1nc(-c2cccc(F)c2)cc1CN1CC2CN(C(=O)OC(C(F)(F)F)C(F)(F)F)CC2C1 (centres unmarked) [Example 195, 1,1,1,3,3,3-hexafluoropropan-2-yl 5-((3-(3-fluorophenyl)-1-methyl-1H-pyrazol-5-yl)methyl)hexahydropyrrolo[3,4-c]pyrrole-2(1H)-carboxylate]	100 to 1000	1000 to 10000	< 100	–	25 to 75	< 25	> 75
CC(=O)N1CCN(c2cc(F)ccc2CN2CC3CN(C(=O)OC(C(F)(F)F)C(F)(F)F)CC3C2)CC1 (centres unmarked) [Example 17, 1,1,1,3,3,3-Hexafluoropropan-2-yl 5-[[2-(4-acetylpiperazin-1-yl)-4-fluorophenyl]methyl]-octahydropyrrolo[3,4-c]pyrrole-2-carboxylate]	1000 to 10000	1000 to 10000	100 to 1000	–	< 25	25 to 75	> 75
CCn1cc(CN2CC3CN(C(=O)OC(C(F)(F)F)C(F)(F)F)CC3C2)c(-c2ccncc2)n1 (centres unmarked) [Example 72, 1,1,1,3,3,3-Hexafluoropropan-2-yl 5-[[1-ethyl-3-(pyridin-4-yl)-1H-pyrazol-4-yl]methyl]-octahydropyrrolo[3,4-c]pyrrole-2-carboxylate]	1000 to 10000	1000 to 10000	< 100	–	25 to 75	< 25	> 75
C#CCNC(=O)c1nn(CC)cc1CN1CC2CN(C(=O)OC(C(F)(F)F)C(F)(F)F)CC2C1 (centres unmarked) [Example 178, 1,1,1,3,3,3-hexafluoropropan-2-yl 5-((1-ethyl-3-(prop-2-yn-1-ylcarbamoyl)-1H-pyrazol-4-yl)methyl)hexahydropyrrolo[3,4-c]pyrrole-2(1H)-carboxylate]	1000 to 10000	> 10000	100 to 1000	–	< 25	< 25	> 75
CC(=O)N1CCN(c2ccc(CN3CC4CN(C(=O)OC(C(F)(F)F)C(F)(F)F)CC4C3)c(Cl)c2)CC1 (centres unmarked) [Example 28, 1,1,1,3,3,3-Hexafluoropropan-2-yl 5-[[4-(4-acetylpiperazin-1-yl)-2-chlorophenyl]methyl]-octahydropyrrolo[3,4-c]pyrrole-2-carboxylate]	1000 to 10000	100 to 1000	< 100	–	< 25	25 to 75	> 75
O=C(OC(C(F)(F)F)C(F)(F)F)N1CC2CN(Cc3ccc(C(=O)N4CCCCC4)c(OC(F)(F)F)c3)CC2C1 (centres unmarked) [Example 192, 1,1,1,3,3,3-hexafluoropropan-2-yl 5-(4-(piperidine-1-carbonyl)-3-(trifluoromethoxy)benzyl)hexahydropyrrolo[3,4-c]pyrrole-2(1H)-carboxylate]	1000 to 10000	> 10000	100 to 1000	–	25 to 75	< 25	> 75
O=C(OC(C(F)(F)F)C(F)(F)F)N1CC2CN(Cc3cccc(Cl)c3N3C4CCC3COC4)CC2C1 (centres unmarked) [Example 43, 1,1,1,3,3,3-Hexafluoropropan-2-yl 5-[(3-chloro-2-[3-oxa-8-azabicyclo[3.2.1]octan-8-yl]phenyl)methyl]-octahydropyrrolo[3,4-c]pyrrole-2-carboxylate]	1000 to 10000	1000 to 10000	< 100	–	< 25	< 25	> 75
